This is an account of results in ChEMBL document CHEMBL1671739, “Reservoir of antimicrobial resistance determinants associated with horizontal gene transfer in clinical isolates of the genus Shewanella” (2010).

What all share (assay type): functional
Test [1] has as its system Shewanella algae. Put plainly: Antimicrobial activity against Shewanella algae Sa392 harboring intI1, intI2, sul1 and sul2 genes by CLSI method.
Test [2] concerns Shewanella algae. The test is described as follows: Antimicrobial activity against Shewanella algae Sa78 harboring sul2 gene by CLSI method.
Test [3] concerns Shewanella putrefaciens. The test is described as follows: Antimicrobial activity against Shewanella putrefaciens Sp117 harboring intI1,sul1,sul2 and beta-lactamase OXA-48 like genes by CLSI method.
Test [4] relates to Shewanella putrefaciens. The test is described as follows: Antimicrobial activity against Shewanella putrefaciens Sp95 harboring intI1,sul1,sul2 and beta-lactamase OXA-48 like genes by CLSI method.
For test [5], the system named is Shewanella algae. The test is described as follows: Antimicrobial activity against Shewanella algae Sa2 harboring intI1, intI2 and sul1 genes by CLSI method.
For test [6], the system named is Shewanella algae. Put plainly: Antimicrobial activity against Shewanella algae Sa82 harboring intI1, intI2, sul1 and sul2 genes by CLSI method.
The test system of test [7] is Shewanella putrefaciens. The test is described as follows: Antimicrobial activity against Shewanella putrefaciens Sp31 harboring intI1 and beta-lactamase OXA-48 like genes by CLSI method.
The subject of test [8] is Shewanella algae. The test is described as follows: Antimicrobial activity against Shewanella algae Sa74 harboring intI1, intI2, sul1 and sul2 genes by CLSI method.
Test [9] deals with Shewanella algae. Put plainly: Antimicrobial activity against Shewanella algae Sa9 harboring intI1, intI2, sul1 and sul2 genes by CLSI method.
For test [10], the system named is Shewanella algae. Put plainly: Antimicrobial activity against Shewanella algae Sa10 harboring intI1, intI2, sul1 and sul2 genes by CLSI method.

In brackets after ≈: the same amount, converted by molar mass.

On to `C[C@@H](O)[C@H]1C(=O)N2C(C(=O)O)=C(SCCNC=N)C[C@H]12` [IMIPENEM ANHYDROUS], for which the MIC came out at 4 µg/mL (≈ 13.4 µM) in test [1]; 4 µg/mL (≈ 13.4 µM) in [2]; 1 µg/mL (≈ 3.34 µM) in test [3]; 0.5 µg/mL (≈ 1.67 µM) in test [4]; 0.25 µg/mL (≈ 0.835 µM) in [5]; 0.25 µg/mL (≈ 0.835 µM) in [6]. For the same compound, the MIC in test [7] was found to be 0.25 µg/mL (≈ 0.835 µM); in [8], 4 µg/mL (≈ 13.4 µM); in [9] it was 2 µg/mL (≈ 6.68 µM); in [10], 8 µg/mL (≈ 26.7 µM).

As for `C[C@@H](O)[C@H]1C(=O)N2C(C(=O)O)=C(S[C@@H]3CN[C@H](C(=O)N(C)C)C3)[C@H](C)[C@H]12` [MEROPENEM], the MIC was found to be 1 µg/mL (≈ 2.61 µM) in [1]; 0.25 µg/mL (≈ 0.652 µM) in test [2]; 4 µg/mL (≈ 10.4 µM) in test [3]; 0.25 µg/mL (≈ 0.652 µM) in [4]; 0.032 µg/mL (≈ 0.0834 µM) in test [5]; 0.38 µg/mL (≈ 0.991 µM) in [6]. For the same compound, the MIC in [7] amounted to 0.125 µg/mL (≈ 0.326 µM); in test [8], 0.0094 µg/mL (≈ 0.0245 µM); in test [9] it was 0.125 µg/mL (≈ 0.326 µM); in test [10], 1 µg/mL (≈ 2.61 µM).

A word on the MIC: it is the lowest concentration found to suppress growth. Read a high MIC as weaker potency.
